# System: 648629-189-R-J1-PDC spheroids with HUVEC/MSC, viability
# Assay: Anticancer human tumor 648629-189-R-J1-PDC patient-derived bladder carcinoma cell line growth inhibition [PI3K]
# Conditions: for IC50: curve of first compound; for viability, T/C: stronger effect = lower value
# From the text: Combinatorial screen of targeted agents with the PI3K inhibitors inavolisib, alpelisib, duvelisib, and copanlisib in multi-cell type tumor spheroids
# A high-throughput screen of multi-cell type tumor spheroids was designed to identify active combinations of targeted small molecules and PI3K pathway inhibitors. Complex spheroids include a stromal component modeled by human endothelial cells (HUVEC) and fibroblasts modeled by human mesenchymal stem cells (MSCs). The concentration ranges selected for each drug and investigational agent were based upon clinically achievable concentrations if the clinical Cmax of the agent was known.
# Compounds. The drugs and investigational agents: inavolisib (NSC800729), alpelisib (NSC765974), duvelisib (NSC772469), copanlisib (NSC816437), ipatasertib (NSC767898), afuresertib (NSC778305), talazoparib (NSC767125), sapanisertib (NSC764658), selumetinib (NSC741078), tovorafenib (DAY101, NSC766906), vemurafenib (NSC761431), ravoxertinib (NSC781343), sotorasib (NSC818433), MRTX1133 (NSC 836407), abemaciclib (NSC 768073), palbociclib (NSC758247), venetoclax (NSC 766270), SY5609 (NSC837396), enzalutamide (NSC755605), and darolutamide (NSC825331), were obtained from the National Cancer Institute (NCI) Developmental Therapeutics Program Chemical Repository. The FDA-approved anticancer drug set is available from the NCI Developmental Therapeutics Program. […] The stock solutions were prepared in dimethyl sulfoxide (DMSO, Sigma-Aldrich, St. Louis, MO, cat. D2650) at 800-fold the tested concentration and stored at -70 degrees C prior to their use. All drugs and investigational agents were tested over a range starting from a high concentration at or near the clinical Cmax and decreasing in half-log increments. If the clinical Cmax for an agent had not been determined, the highest concentration tested was 10 microM.
# Cell Culture. All cells were maintained in an incubator at 37 degrees C and 5% CO2 with 95% humidity. The PDC lines were cultured according to standard operating procedures established by the NCI PDMR (https://pdmr.cancer.gov/sops/default.htm). All PDCs were thawed and cultured in Matrigel-coated flasks prepared with a working solution of 1X Ham's F-12 nutrient mix, without supplementation (Invitrogen, Waltham, MA, cat. 11765054), 100 U/mL penicillin-streptomycin (Invitrogen, cat. 15140122), and 2.5% Matrigel (Corning Inc., Corning, NY, cat. 354248) for the first three passages. The 354836-022-R-J1-PDC, 475296-252-R-J1-PDC, and 997726-040-R-J2-PDC lines were cultured in 6A media, which includes advanced DMEM/F-12 (Thermo Fisher Scientific, cat. 12634028), 10 mM HEPES (Thermo Fisher Scientific, cat. 15630080), 1X GlutaMAX supplement (Thermo Fisher Scientific, cat. 35050061), 0.1 mg/mL primocin (InvivoGen, San Diego, CA, cat. ant-pm-2), 10% defined fetal bovine serum, heat inactivated (HyClone Laboratories Inc., Logan, UT, cat. SH30070.03HI), 50% L-WRN conditioned media (ATCC, cat. CRL-3276), 1.25 mM N-Acetyl-L-cysteine (Sigma-Aldrich, cat. A9165), 10 mM nicotinamide (Sigma-Aldrich, cat. N0636), 1X B-27 supplement (Thermo Fisher Scientific, cat. 17504044), 1X N-2 supplement (Thermo Fisher Scientific, cat. 17502048), and 10 microM Y-27632 dihydrochloride (Tocris Bioscience, Bristol, United Kingdom, cat. 1254). The 624824-186-R-J2-PDC line was cultured in 6C/Colon 1B media, which includes all 6A media components plus 50 ng/mL human EGF recombinant protein (Thermo Fisher Scientific, cat. PHG0311). […]
# [1] = second compound 0.00316 µM, first compound 0.0316 µM
# [2] = second compound 0.00316 µM, first compound 0.1 µM
# [3] = second compound 0.01 µM, first compound 0.0316 µM
# [4] = second compound 0.01 µM, first compound 0.1 µM
# [5] = second compound 0.0316 µM, first compound 0.0316 µM
# [6] = second compound 0.0316 µM, first compound 0.1 µM
# [7] = second compound 0.1 µM, first compound 0.0316 µM
# [8] = second compound 0.1 µM, first compound 0.1 µM
# [9] = second compound 0.316 µM, first compound 0.0316 µM
# [10] = second compound 0.316 µM, first compound 0.1 µM
# [11] = second compound 1 µM, first compound 0.0316 µM
# [12] = second compound 1 µM, first compound 0.1 µM
# 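Also: spheroids exposed to agents for seven days before reading.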
# 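For viability, T/C in this document: percent of vehicle control luminescence where 100% = DMSO treated spheroids.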
compound,measurement,setting,value
CC(C)n1nc(-c2ccc3oc(N)nc3c2)c2c(N)ncnc21 + CC(Nc1ccc2c(c1)OCCn1cc(N3C(=O)OCC3C(F)F)nc1-2)C(N)=O,IC50,second compound 0.00316 µM,61.3 nM
same,IC50,second compound 0.01 µM,59.5 nM
same,IC50,second compound 0.0316 µM,59 nM
same,IC50,second compound 0.1 µM,53.9 nM
same,IC50,second compound 0.316 µM,31.8 nM
same,IC50,second compound 1 µM,12.5 nM
same,"viability, T/C","second compound 0.00316 µM, first compound 0.000316 µM",119%
same,"viability, T/C","second compound 0.00316 µM, first compound 0.001 µM",100%
same,"viability, T/C","second compound 0.00316 µM, first compound 0.00316 µM",94.7%
same,"viability, T/C","second compound 0.00316 µM, first compound 0.01 µM",90%
same,"viability, T/C",[1],68.8%
same,"viability, T/C",[2],36.2%
same,"viability, T/C","second compound 0.01 µM, first compound 0.000316 µM",102%
same,"viability, T/C","second compound 0.01 µM, first compound 0.001 µM",92.2%
same,"viability, T/C","second compound 0.01 µM, first compound 0.00316 µM",96.3%
same,"viability, T/C","second compound 0.01 µM, first compound 0.01 µM",95.5%
same,"viability, T/C",[3],74.3%
same,"viability, T/C",[4],30%
same,"viability, T/C","second compound 0.0316 µM, first compound 0.000316 µM",119%
same,"viability, T/C","second compound 0.0316 µM, first compound 0.001 µM",103%
same,"viability, T/C","second compound 0.0316 µM, first compound 0.00316 µM",98.3%
same,"viability, T/C","second compound 0.0316 µM, first compound 0.01 µM",80%
same,"viability, T/C",[5],75.9%
same,"viability, T/C",[6],32.6%
same,"viability, T/C","second compound 0.1 µM, first compound 0.000316 µM",89.1%
same,"viability, T/C","second compound 0.1 µM, first compound 0.001 µM",94.9%
same,"viability, T/C","second compound 0.1 µM, first compound 0.00316 µM",80.3%
same,"viability, T/C","second compound 0.1 µM, first compound 0.01 µM",82.9%
same,"viability, T/C",[7],72.5%
same,"viability, T/C",[8],25.3%
same,"viability, T/C","second compound 0.316 µM, first compound 0.000316 µM",81.6%
same,"viability, T/C","second compound 0.316 µM, first compound 0.001 µM",73.3%
same,"viability, T/C","second compound 0.316 µM, first compound 0.00316 µM",78.6%
same,"viability, T/C","second compound 0.316 µM, first compound 0.01 µM",74.6%
same,"viability, T/C",[9],50.2%
same,"viability, T/C",[10],24.8%
same,"viability, T/C","second compound 1 µM, first compound 0.000316 µM",65.6%
same,"viability, T/C","second compound 1 µM, first compound 0.001 µM",63.1%
same,"viability, T/C","second compound 1 µM, first compound 0.00316 µM",67.2%
same,"viability, T/C","second compound 1 µM, first compound 0.01 µM",48%
same,"viability, T/C",[11],39.8%
same,"viability, T/C",[12],17.9%
CCCS(=O)(=O)Nc1ccc(F)c(C(=O)c2c[nH]c3ncc(-c4ccc(Cl)cc4)cc23)c1F + CC(Nc1ccc2c(c1)OCCn1cc(N3C(=O)OCC3C(F)F)nc1-2)C(N)=O,IC50,second compound 0.00316 µM,5190 nM
same,IC50,second compound 0.01 µM,5510 nM
same,IC50,second compound 0.0316 µM,4720 nM
same,IC50,second compound 0.1 µM,4820 nM
same,IC50,second compound 0.316 µM,4480 nM
same,IC50,second compound 1 µM,3550 nM
same,"viability, T/C",[1],108%
same,"viability, T/C",[2],105%
same,"viability, T/C","second compound 0.00316 µM, first compound 0.316 µM",105%
same,"viability, T/C","second compound 0.00316 µM, first compound 1 µM",106%
same,"viability, T/C","second compound 0.00316 µM, first compound 3.16 µM",87.5%
same,"viability, T/C","second compound 0.00316 µM, first compound 10 µM",0.36%
same,"viability, T/C",[3],112%
same,"viability, T/C",[4],91%
same,"viability, T/C","second compound 0.01 µM, first compound 0.316 µM",109%
same,"viability, T/C","second compound 0.01 µM, first compound 1 µM",129%
same,"viability, T/C","second compound 0.01 µM, first compound 3.16 µM",96.5%
same,"viability, T/C","second compound 0.01 µM, first compound 10 µM",0.28%
same,"viability, T/C",[5],104%
same,"viability, T/C",[6],111%
same,"viability, T/C","second compound 0.0316 µM, first compound 0.316 µM",93.3%
same,"viability, T/C","second compound 0.0316 µM, first compound 1 µM",112%
same,"viability, T/C","second compound 0.0316 µM, first compound 3.16 µM",76.5%
same,"viability, T/C","second compound 0.0316 µM, first compound 10 µM",0.32%
same,"viability, T/C",[7],98.3%
same,"viability, T/C",[8],92.3%
same,"viability, T/C","second compound 0.1 µM, first compound 0.316 µM",97.9%
same,"viability, T/C","second compound 0.1 µM, first compound 1 µM",98.9%
same,"viability, T/C","second compound 0.1 µM, first compound 3.16 µM",77.3%
same,"viability, T/C","second compound 0.1 µM, first compound 10 µM",2.36%
same,"viability, T/C",[9],94.5%
same,"viability, T/C",[10],83.4%
same,"viability, T/C","second compound 0.316 µM, first compound 0.316 µM",88.1%
same,"viability, T/C","second compound 0.316 µM, first compound 1 µM",84.5%
same,"viability, T/C","second compound 0.316 µM, first compound 3.16 µM",71.9%
same,"viability, T/C","second compound 0.316 µM, first compound 10 µM",0.44%
same,"viability, T/C",[11],63.8%
same,"viability, T/C",[12],60.6%
same,"viability, T/C","second compound 1 µM, first compound 0.316 µM",65.8%
same,"viability, T/C","second compound 1 µM, first compound 1 µM",64.9%
same,"viability, T/C","second compound 1 µM, first compound 3.16 µM",55.2%
same,"viability, T/C","second compound 1 µM, first compound 10 µM",0.54%

# Reference: PubChem BioAssay AID1963974 (Molecular Pharmacology Branch, DTP, NCI, 2024)
